This passage reports IC50 results from US20240124439A1, “Pyrido[2,3-D]Imidazole Derivatives and Their Use As Inhibitors of ITK for the Treatment of Skin Disease” (Pfizer Inc., priority 2020, published 2024).

For test [1], the system named is activated CD4+ human T-cells (IL-2). In words: IL-2 inhibition in supernatants from activated CD4+ human T-cells (cisbio HTRF). As to conditions: T-cell; CD3/CD28-activated CD4+ human T cells, ImmunoCult stimulation 20 to 24 hrs; geometric mean of count n. In kind it is cell-based. How it is done:
IL-2 inhibition activity in supernatants from activated CD4+ human T-cells was determined by measuring the effect of a test compound on the activity using the cisbio HTRF™ technology.
Human CD4+ T cells were activated with CD3/CD28 for 3 days and expanded for an additional 4-6 days (7 to 9 days total). On day 0, frozen CD4+ T cells were thawed, treated with CD3/CD28 Dynabeads, and incubated at 37° C./5% CO2. On day 3, the beads were removed, and the cells were diluted to 5×10^5 cells/cm^2, placed in G-Rex10 flask, and incubated at 37° C./5% CO2. On day 7 to day 9 the cells were removed from the G-Rex flasks, counted and diluted back to 1×10^6 cells/ml in standard tissue culture flask.
The expanded CD4+ T-cells were centrifuged at 300×g for 10 minutes and resuspended to 0.5 million cells per ml (30,000 cells/well). 60 μl of CD4+ T cells were added per well to a 384 well plate containing 0.1 μL of varying concentrations of test compound in DMSO. The plates were incubated for 15 min at 37° C./5% CO2. 20 μl of diluted ImmunoCult™ (STEMCELL Technologies, 1:12.5 in T cell assay media) were added to all wells of the plate (1:50 final assay concentration). The plates were incubated for an additional 20 to 24 hrs at 37° C./5% CO2. The plates were centrifuged at 300×g for 10 minutes. 16 μL of supernatant was removed and combined with 4 μl of IL-2 HTRF Abs. (cisbio kit). Plates were incubated for 3 hours at RT and read with an EnVision plate reader at 665 nm and 615 nm wavelengths. The concentrations and resulting effect values for the tested compound were plotted and the concentration of compound required for 50% effect (IC50) was determined with the four-parameter logistic dose response equation.
A general note: In TR-FRET formats the signal depends on donor and acceptor labels being close together.

The target of test [2] is IL-2-Inducible T-Cell Kinase (ITK) (Homo sapiens (Human), UniProt Q08881). Kind of test: ITK enzyme assay (IL-2-inducible T-cell kinase activity). The class given is biochemical. As to conditions: geometric mean of count n. On the procedure:
ITK activity was determined by measuring the effect of a test compound in an ITK enzyme assay.
1.0 M HEPES Buffer pH 7.5 solution was prepared as follows: 238.3 g HEPES free acid (Sigma) and 800 mL of water were combined, and the mixture was stirred until complete dissolution. The pH was adjusted to 7.5 via titration with 5N NaOH and the volume adjusted to 1000 mL. The solution was filtered and sterilized.
ITK assay buffer was prepared as follows: 50 mL of HPLC-grade water was treated with 2 mL of 1.0 M HEPES Buffer, 500 μL of 2% Gelatin (Sigma), 1.0 mL of aqueous MgCl2 solution (1.0 M), and 1.0 mL of aqueous glutathione solution (0.5 M), and the solution was mixed. The solution was brought to 99 mL in a graduated cylinder by addition of water and sterilized through a 0.2 μm filter. 0.1 mL of Brij-35™ Surfact-Amps™ Detergent Solution (10% w/v aqueous solution, ThermoFisher) and 1.0 mL of ATP (Teknova,100 mM) were added and the solution was mixed.
Preparation of 1.33× ITK enzyme solution was as follows: 49.99 mL of ITK assay buffer was treated with 4.1 μL of ITK enzyme (ITK FL (N-Flag and C-His tagged, […]) Lake Pharma, 0.25 mg/ml in a buffer containing 25 mM Tris pH 7.8, 150 mM NaCl, 10% glycerol and 2 mM TCEP) and the mixture was gently agitated. The resulting solution was stored on ice. 30 Minutes prior to use, the enzyme solution was removed from ice and equilibrated to RT by incubation in a RT water bath.
Preparation of 4× ITK substrate solution was as follows: 50 mL of ITK assay buffer was treated with 100 μL of BTK peptide (China Peptide Company, 2 mM stock solution in DMSO). The tube was capped, mixed by gently inverting the tube, and then stored on ice. 30 Minutes prior to use, the substrate solution was removed from ice and equilibrated to RT by incubation in a RT water bath.
At the time of assay, 7.5 μL of the 1.33× ITK enzyme solution was added to plate wells containing 0.1 μL of varying concentrations of test compound in DMSO. The plate was incubated 30 min at RT. The plate wells were each treated with 2.5 uL of the 4× ITK substrate solution and the plate was sealed (TopSeal™, Perkin Elmer). The plate was spun at 1000 rpm for 30 sec and then incubated for 60 min at RT. The seal was removed, and each well was treated with 10 μL of Stop/Detect Buffer (20 mM HEPES pH 7.5, 0.01% gelatin, 1 nM LANCE PT66 (Perkin Elmer), 16.5 μg/ml Surelight APC (Perkin Elmer), 10 mM EDTA, 250 mM NaCl). The plate was again covered and was spun at 1000 rpm for […]. The plate was allowed to incubate overnight at RT and in a closed carrier to reduce dehydration. The seal was removed, and the fluorescence was read with a plate reader with an excitation wavelength of […]. The concentrations and resulting effect values for the tested compound were plotted and the concentration of compound required for 50% effect (IC50) was determined with the four-parameter logistic dose response equation.

Chain of IL-2-Inducible T-Cell Kinase (ITK) (Q08881 whole entry): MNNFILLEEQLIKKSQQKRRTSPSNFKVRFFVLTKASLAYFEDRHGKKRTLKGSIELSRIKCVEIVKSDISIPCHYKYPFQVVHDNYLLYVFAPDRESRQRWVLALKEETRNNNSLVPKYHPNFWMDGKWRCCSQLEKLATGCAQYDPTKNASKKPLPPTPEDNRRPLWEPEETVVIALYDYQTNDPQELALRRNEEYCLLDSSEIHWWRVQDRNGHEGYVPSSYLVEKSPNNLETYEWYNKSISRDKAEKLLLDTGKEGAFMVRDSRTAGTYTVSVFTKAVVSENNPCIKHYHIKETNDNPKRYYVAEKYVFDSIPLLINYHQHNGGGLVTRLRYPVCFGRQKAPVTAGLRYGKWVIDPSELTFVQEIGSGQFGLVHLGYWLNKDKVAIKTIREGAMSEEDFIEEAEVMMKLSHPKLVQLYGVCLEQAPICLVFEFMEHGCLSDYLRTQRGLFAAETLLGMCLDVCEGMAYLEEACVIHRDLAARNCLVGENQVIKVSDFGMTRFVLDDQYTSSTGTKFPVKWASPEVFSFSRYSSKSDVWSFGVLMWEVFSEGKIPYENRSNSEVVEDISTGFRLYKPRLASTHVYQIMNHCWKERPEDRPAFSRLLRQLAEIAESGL

One may read the IC50 as the concentration needed to halve the response being measured. A lower IC50 goes with inhibition by little substance. As for `C[C@@H](C(=O)N(C)c1cnc2nc(-c3n[nH]c4c3C[C@@H]3C[C@]3(C)C4)[nH]c2c1)n1cccn1` [Example 7, (S)-N-Methyl-N-(2-((4aS,5aR)-5a-methyl-1,4,4a,5,5a,6-hexahydrocyclopropa[f]indazol-3-yl)-1H-imidazo[4,5-b]pyridin-6-yl)-2-(1H-pyrazol-1-yl)propenamide], the IC50 was determined as 398 nM in test [1] and 70 nM in test [2].
For `C[C@H](C(=O)N(C)c1cnc2nc(-c3n[nH]c4c3C[C@@H]3C[C@]3(C)C4)[nH]c2c1)n1cccn1` [Example 8, (R)-N-Methyl-N-(2-((4aS,5aR)-5a-methyl-1,4,4a,5,5a,6-hexahydrocyclopropa[f]indazol-3-yl)-1H-imidazo[4,5-b]pyridin-6-yl)-2-(1H-pyrazol-1-yl)propanamide], in that order: 279 nM and 117 nM.
Taken in the same sequence, the figures for `CC(C(=O)N(C)c1cnc2[nH]c(-c3n[nH]c4c3C[C@@H]3C[C@]3(C)C4)nc2c1)C1CCOCC1` (stereo partly drawn) [Example 9, N-Methyl-N-(2-((4aS,5aR)-5a-methyl-1,4,4a,5,5a,6-hexahydrocyclopropa[f]indazol-3-yl)-3H-imidazo[4,5-b]pyridin-6-yl)-2-(tetrahydro-2H-pyran-4-yl)propanamide] were 147 nM and 24 nM.
As to `CN(C(=O)C(F)C1CCOCC1)c1cnc2nc(-c3n[nH]c4c3C[C@@H]3C[C@]3(C)C4)[nH]c2c1` (stereo partly drawn) [Example 11, 2-Fluoro-N-methyl-N-(2-((4aS,5aR)-5a-methyl-1,4,4a,5,5a,6-hexahydrocyclopropa[f]indazol-3-yl)-1H-imidazo[4,5-b]pyridin-6-yl)-2-(tetrahydro-2H-pyran-4-yl)acetamide], the IC50 in test [1] was 534 nM; in test [2] it was 72 nM.
For `CN(C(=O)[C@H](F)C1CCOCC1)c1cnc2nc(-c3n[nH]c4c3C[C@@H]3C[C@]3(C)C4)[nH]c2c1` [Example 12, (R)-2-Fluoro-N-methyl-N-(2-((4aS,5aR)-5a-methyl-1,4,4a,5,5a,6-hexahydrocyclopropa[f]indazol-3-yl)-1H-imidazo[4,5-b]pyridin-6-yl)-2-(tetrahydro-2H-pyran-4-yl)acetamide], the IC50 in test [1] was 447 nM; in test [2] it was 76 nM.
With `CN(C(=O)[C@@H](F)C1CCOCC1)c1cnc2nc(-c3n[nH]c4c3C[C@@H]3C[C@]3(C)C4)[nH]c2c1` [Example 13, (S)-2-Fluoro-N-methyl-N-(2-((4aS,5aR)-5a-methyl-1,4,4a,5,5a,6-hexahydrocyclopropa[f]indazol-3-yl)-1H-imidazo[4,5-b]pyridin-6-yl)-2-(tetrahydro-2H-pyran-4-yl)acetamide], the IC50 in test [1] was 559 nM; in test [2] it was 102 nM.
On to `C[C@@H](C(=O)N(CCO)c1cnc2[nH]c(-c3n[nH]c4c3C[C@@H]3C[C@]3(C)C4)nc2c1)N1CCOCC1` [Example 15, (S)-N-(2-Hydroxyethyl)-N-(2-((4aS,5aR)-5a-methyl-1,4,4a,5,5a,6-hexahydrocyclopropa[f]indazol-3-yl)-3H-imidazo[4,5-b]pyridin-6-yl)-2-morpholinopropanamide], for which the figures for the IC50 in test [1] and in test [2] were 1230 nM and 83 nM, respectively.
On to `CC(=O)N(C)c1cnc2[nH]c(-c3n[nH]c4c3CCC(C)(C)C4)nc2c1` [Example 20, N-(2-(6,6-Dimethyl-4,5,6,7-tetrahydro-1H-indazol-3-yl)-3H-imidazo[4,5-b]pyridin-6-yl)-N-methylacetamide], for which the values for the IC50 in test [1] and in test [2] were 1200 nM and 231 nM, respectively.
For `CCN(C(=O)[C@H](C)N1CCOCC1)c1cnc2nc(-c3n[nH]c4c3C[C@@H]3C[C@]3(C)C4)[nH]c2c1` [Example 21, (S)-N-Ethyl-N-(2-((4aS,5aR)-5a-methyl-1,4,4a,5,5a,6-hexahydrocyclopropa[f]indazol-3-yl)-1H-imidazo[4,5-b]pyridin-6-yl)-2-morpholinopropanamide], in that order: 193 nM and 38 nM.
Taken in the same sequence, the figures for `CC(=O)N(C)c1cnc2[nH]c(-c3n[nH]c4c3C[C@@H]3C[C@]3(C)C4)nc2c1` [Example 25, N-methyl-N-(2-((4aS,5aR)-5a-Methyl-1,4,4a,5,5a,6-hexahydrocyclopropa[f]indazol-3-yl)-1H-imidazo[4,5-b]pyridin-6-yl)acetamide] were 709 nM and 130 nM.
For `Cc1nc2[nH]c(-c3n[nH]c4c3C[C@@H]3C[C@]3(C)C4)nc2cc1N(C)C(=O)[C@H](C)N1CCOCC1` [Example 34, (S)-N-Methyl-N-(5-methyl-2-((4aS,5aR)-5a-methyl-1,4,4a,5,5a,6-hexahydrocyclopropa[f]indazol-3-yl)-3H-imidazo[4,5-b]pyridin-6-yl)-2-morpholinopropanamide], in that order: 481 nM and 61 nM.
Take `COc1nc2[nH]c(-c3n[nH]c4c3C[C@@H]3C[C@]3(C)C4)nc2cc1N(C)C(=O)CN1CCOCC1` [Example 35, N-(5-Methoxy-2-((4aS,5aR)-5a-methyl-1,4,4a,5,5a,6-hexahydrocyclopropa[f]indazol-3-yl)-3H-imidazo[4,5-b]pyridin-6-yl)-N-methyl-2-morpholinoacetamide]: the IC50 in test [1] worked out at 462 nM; in test [2], 143 nM.
Taken in the same sequence, the figures for `COCCOc1nc2[nH]c(-c3n[nH]c4c3C[C@@H]3C[C@]3(C)C4)nc2cc1N(C)C(=O)CN1CCOCC1` [Example 38, N-(5-(2-Methoxyethoxy)-2-((4aS,5aR)-5a-methyl-1,4,4a,5,5a,6-hexahydrocyclopropa[f]indazol-3-yl)-3H-imidazo[4,5-b]pyridin-6-yl)-N-methyl-2-morpholinoacetamide] were 464 nM and 152 nM.
Taken in the same sequence, the figures for `COCCOc1nc2[nH]c(-c3n[nH]c4c3C[C@@H]3C[C@]3(C)C4)nc2cc1N(C)C(=O)[C@@H](C)N1CCOCC1` [Example 39, (R)-N-(5-(2-Methoxyethoxy)-2-((4aS,5aR)-5a-methyl-1,4,4a,5,5a,6-hexahydrocyclopropa[f]indazol-3-yl)-3H-imidazo[4,5-b]pyridin-6-yl)-N-methyl-2-morpholinopropanamide] were 461 nM and 110 nM.
For `C[C@@H](C(=O)N(C)c1cnc2[nH]c(-c3n[nH]c4c3C[C@@H]3C[C@]3(C)C4)nc2c1)N1CCCOCC1` [Example 43, (S)-N-Methyl-N-(2-((4aS,5aR)-5a-methyl-1,4,4a,5,5a,6-hexahydrocyclopropa[f]indazol-3-yl)-3H-imidazo[4,5-b]pyridin-6-yl)-2-(1,4-oxazepan-4-yl)propenamide], the figures for the IC50 in test [1] and in test [2] were 351 nM and 134 nM, respectively.
